# Columns and labels:
# Assay in all cases: SILAC RP-ABPP
# Assay type in all cases: cell-based
# [1] = target: T1, TTC38 Tetratricopeptide repeat protein 38 (Q5R3I4) (Homo sapiens, UniProt Q5R3I4); conditions: SILAC H/L, HEK293T
# T1 construct: In Situ Labelling of Cells with Hydrazine Probes for MS Experiments; endogenous in cells; host or cells: HEK293T and/or MDA-MB-231
# Method in brief: (§1)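 Heavy SILAC HEK293T or MDA-MB-231 cells were treated with a clickable hydrazine probe; light cells received the non-clickable analogue (enrichment) or the probe plus 10-fold excess non-clickable competitor (competition). Mixed proteomes underwent CuAAC with 100 μM biotin-azide for 1 h. Heavy:light ratios were taken as median peptide ratios (≥3 peptides) averaged over ≥3 replicates.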
# [2] = target: T2, PLOD2 Procollagenlysine, 2oxoglutarate (O00469) (Homo sapiens, UniProt O00469); conditions: SILAC H/L, MDA-MB-231
# T2 construct: endogenous in cells; host or cells: HEK293T or MDA-MB-231
# Method in brief: as §1
# CAT Catalase (P04040) = target: T3, CAT Catalase (P04040) (Homo sapiens, UniProt P04040); conditions: SILAC H/L, MDA-MB-231
# T3 construct: endogenous in cells; host or cells: HEK293T or MDA-MB-231
# T3 sequence (P04040 whole entry): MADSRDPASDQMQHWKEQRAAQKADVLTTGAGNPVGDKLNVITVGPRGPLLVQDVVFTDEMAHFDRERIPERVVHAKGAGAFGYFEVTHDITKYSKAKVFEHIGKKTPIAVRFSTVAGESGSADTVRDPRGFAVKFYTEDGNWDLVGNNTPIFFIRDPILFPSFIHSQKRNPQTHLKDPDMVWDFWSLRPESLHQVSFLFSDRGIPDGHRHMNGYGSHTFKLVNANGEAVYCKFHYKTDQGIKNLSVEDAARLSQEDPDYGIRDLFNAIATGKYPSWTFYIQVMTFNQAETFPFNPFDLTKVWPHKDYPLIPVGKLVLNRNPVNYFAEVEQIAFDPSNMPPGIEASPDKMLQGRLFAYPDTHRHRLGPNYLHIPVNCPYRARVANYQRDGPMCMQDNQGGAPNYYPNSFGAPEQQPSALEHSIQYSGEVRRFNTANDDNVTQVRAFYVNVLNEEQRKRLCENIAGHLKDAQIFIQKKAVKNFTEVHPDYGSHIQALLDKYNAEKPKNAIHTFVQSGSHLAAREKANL
# Method in brief: as §1
# [3] = target: T4, HMOX2 Heme oxygenase 2 (P30519) (Homo sapiens, UniProt P30519); conditions: SILAC H/L, HEK293T
# T4 construct: In Situ Labelling of Cells with Hydrazine Probes for MS Experiments; endogenous in cells; host or cells: HEK293T and/or MDA-MB-231
# T4 sequence (P30519 whole entry): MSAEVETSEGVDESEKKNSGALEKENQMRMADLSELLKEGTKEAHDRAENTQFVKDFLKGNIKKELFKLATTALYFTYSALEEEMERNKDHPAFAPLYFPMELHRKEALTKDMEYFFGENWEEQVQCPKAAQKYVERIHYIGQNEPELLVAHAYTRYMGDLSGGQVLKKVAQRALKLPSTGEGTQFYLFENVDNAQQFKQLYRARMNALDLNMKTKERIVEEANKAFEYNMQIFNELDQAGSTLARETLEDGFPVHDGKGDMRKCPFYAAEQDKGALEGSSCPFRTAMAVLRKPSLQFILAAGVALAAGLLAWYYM
# Method in brief: as §1
# [4] = target: T5, ERAP1 Endoplasmic reticulum aminopeptidase (Q9NZ08) (Homo sapiens, UniProt Q9NZ08); conditions: SILAC H/L, MDA-MB-231
# T5 construct: endogenous in cells; host or cells: HEK293T or MDA-MB-231
# T5 sequence (Q9NZ08 whole entry): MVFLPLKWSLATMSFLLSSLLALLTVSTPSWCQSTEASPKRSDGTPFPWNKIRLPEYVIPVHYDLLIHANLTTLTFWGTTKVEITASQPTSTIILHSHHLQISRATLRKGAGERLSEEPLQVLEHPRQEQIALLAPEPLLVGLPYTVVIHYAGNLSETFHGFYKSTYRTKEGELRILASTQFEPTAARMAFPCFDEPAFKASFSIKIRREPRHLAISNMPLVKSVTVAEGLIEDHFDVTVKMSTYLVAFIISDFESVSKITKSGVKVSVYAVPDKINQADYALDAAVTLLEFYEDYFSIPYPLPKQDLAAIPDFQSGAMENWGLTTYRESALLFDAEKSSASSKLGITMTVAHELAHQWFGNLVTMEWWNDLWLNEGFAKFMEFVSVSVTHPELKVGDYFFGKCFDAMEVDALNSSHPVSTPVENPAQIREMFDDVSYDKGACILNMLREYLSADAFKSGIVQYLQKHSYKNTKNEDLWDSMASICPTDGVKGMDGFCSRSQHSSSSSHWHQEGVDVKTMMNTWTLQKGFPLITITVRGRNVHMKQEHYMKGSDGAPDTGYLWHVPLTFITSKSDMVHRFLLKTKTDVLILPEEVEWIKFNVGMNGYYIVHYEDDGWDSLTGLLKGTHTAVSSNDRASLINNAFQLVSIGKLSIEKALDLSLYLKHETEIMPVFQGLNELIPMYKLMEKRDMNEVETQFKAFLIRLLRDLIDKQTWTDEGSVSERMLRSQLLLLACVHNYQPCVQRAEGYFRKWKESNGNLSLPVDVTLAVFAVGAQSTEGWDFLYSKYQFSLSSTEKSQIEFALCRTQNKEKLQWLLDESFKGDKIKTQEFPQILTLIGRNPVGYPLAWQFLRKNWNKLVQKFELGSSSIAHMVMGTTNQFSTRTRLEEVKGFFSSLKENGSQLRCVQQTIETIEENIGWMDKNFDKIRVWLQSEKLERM
# Method in brief: as §1
# [5] = target: T6, CYP51A1 Lanosterol 14alpha demethylase (Q16850) (Homo sapiens, UniProt Q16850); conditions: SILAC H/L, HEK293T
# T6 construct: In Situ Labelling of Cells with Hydrazine Probes for MS Experiments; endogenous in cells; host or cells: HEK293T and/or MDA-MB-231
# T6 sequence (Q16850 whole entry): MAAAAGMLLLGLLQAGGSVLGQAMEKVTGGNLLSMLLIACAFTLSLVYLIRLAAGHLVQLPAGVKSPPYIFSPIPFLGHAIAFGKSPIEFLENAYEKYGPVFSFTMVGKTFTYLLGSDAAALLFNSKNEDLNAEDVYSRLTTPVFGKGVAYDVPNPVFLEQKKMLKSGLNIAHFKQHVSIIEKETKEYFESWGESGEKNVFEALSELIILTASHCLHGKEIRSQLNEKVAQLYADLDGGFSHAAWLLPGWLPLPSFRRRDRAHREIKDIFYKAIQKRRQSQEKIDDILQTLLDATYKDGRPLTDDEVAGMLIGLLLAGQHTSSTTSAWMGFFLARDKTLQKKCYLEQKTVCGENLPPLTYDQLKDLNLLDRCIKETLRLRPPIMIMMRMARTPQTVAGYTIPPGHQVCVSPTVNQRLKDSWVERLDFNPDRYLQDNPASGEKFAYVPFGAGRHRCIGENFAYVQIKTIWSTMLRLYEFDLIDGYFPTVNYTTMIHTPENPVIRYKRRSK
# Method in brief: as §1
# [6] = target: T7, KDM1B Lysinespecific histone demethylase 1B (Q8NB78) (Homo sapiens, UniProt Q8NB78); conditions: SILAC H/L, HEK293T
# T7 construct: In Situ Labelling of Cells with Hydrazine Probes for MS Experiments; endogenous in cells; host or cells: HEK293T and/or MDA-MB-231
# T7 sequence (Q8NB78 whole entry): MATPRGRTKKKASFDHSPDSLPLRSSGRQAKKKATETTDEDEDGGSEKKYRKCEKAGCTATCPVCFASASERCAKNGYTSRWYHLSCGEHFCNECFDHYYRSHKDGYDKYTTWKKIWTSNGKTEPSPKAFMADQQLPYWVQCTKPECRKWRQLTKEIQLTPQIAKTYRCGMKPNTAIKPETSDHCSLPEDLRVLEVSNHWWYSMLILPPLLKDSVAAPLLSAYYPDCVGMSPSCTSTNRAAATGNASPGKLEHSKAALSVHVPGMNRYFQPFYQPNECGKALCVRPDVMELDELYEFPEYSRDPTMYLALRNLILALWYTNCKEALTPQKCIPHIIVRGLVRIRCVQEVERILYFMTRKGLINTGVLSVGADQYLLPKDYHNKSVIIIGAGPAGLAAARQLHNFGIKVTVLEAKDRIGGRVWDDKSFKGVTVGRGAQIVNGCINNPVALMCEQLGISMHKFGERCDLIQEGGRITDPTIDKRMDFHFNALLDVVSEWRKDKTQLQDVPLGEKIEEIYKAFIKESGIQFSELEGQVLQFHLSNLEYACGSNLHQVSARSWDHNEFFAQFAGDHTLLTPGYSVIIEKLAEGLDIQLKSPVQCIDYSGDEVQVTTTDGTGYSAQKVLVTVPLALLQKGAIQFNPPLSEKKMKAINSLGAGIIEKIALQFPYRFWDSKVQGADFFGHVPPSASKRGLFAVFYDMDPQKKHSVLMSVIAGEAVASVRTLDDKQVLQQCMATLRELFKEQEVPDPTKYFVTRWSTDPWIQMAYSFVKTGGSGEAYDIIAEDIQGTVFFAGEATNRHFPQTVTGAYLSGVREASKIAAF
# Method in brief: as §1
# [7] = target: T8, RRM2B Ribonucleosidediphosphate reductase (Q7LG56) (Homo sapiens, UniProt Q7LG56); conditions: SILAC H/L, MDA-MB-231
# T8 construct: endogenous in cells; host or cells: HEK293T or MDA-MB-231
# T8 sequence (Q7LG56 whole entry): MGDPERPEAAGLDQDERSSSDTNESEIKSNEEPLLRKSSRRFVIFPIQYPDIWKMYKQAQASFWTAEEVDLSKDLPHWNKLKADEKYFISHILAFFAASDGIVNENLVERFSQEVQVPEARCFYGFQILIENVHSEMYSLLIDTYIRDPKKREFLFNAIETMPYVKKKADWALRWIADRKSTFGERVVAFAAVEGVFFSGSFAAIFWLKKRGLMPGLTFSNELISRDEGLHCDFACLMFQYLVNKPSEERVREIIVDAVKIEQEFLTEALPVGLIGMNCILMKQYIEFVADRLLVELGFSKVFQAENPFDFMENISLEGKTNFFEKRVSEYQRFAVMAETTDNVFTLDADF
# Method in brief: as §1
# [8] = target: T9, CMBL Carboxymethylenebutenolidase homolog (Q96DG6) (Homo sapiens, UniProt Q96DG6); conditions: SILAC H/L, HEK293T
# T9 construct: In Situ Labelling of Cells with Hydrazine Probes for MS Experiments; endogenous in cells; host or cells: HEK293T and/or MDA-MB-231
# T9 sequence (Q96DG6 whole entry): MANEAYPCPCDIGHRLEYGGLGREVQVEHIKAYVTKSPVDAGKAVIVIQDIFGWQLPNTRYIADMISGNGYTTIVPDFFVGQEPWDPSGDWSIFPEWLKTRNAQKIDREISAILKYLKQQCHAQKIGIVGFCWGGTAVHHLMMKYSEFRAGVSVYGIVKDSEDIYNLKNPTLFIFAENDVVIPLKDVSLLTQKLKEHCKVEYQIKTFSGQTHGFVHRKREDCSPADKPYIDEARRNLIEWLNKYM
# Method in brief: as §1
# [9] = target: T10, ASAH1 Acid ceramidase (Q13510) (Homo sapiens, UniProt Q13510); conditions: SILAC H/L, MDA-MB-231
# T10 construct: endogenous in cells; host or cells: HEK293T or MDA-MB-231
# T10 sequence (Q13510 22-395): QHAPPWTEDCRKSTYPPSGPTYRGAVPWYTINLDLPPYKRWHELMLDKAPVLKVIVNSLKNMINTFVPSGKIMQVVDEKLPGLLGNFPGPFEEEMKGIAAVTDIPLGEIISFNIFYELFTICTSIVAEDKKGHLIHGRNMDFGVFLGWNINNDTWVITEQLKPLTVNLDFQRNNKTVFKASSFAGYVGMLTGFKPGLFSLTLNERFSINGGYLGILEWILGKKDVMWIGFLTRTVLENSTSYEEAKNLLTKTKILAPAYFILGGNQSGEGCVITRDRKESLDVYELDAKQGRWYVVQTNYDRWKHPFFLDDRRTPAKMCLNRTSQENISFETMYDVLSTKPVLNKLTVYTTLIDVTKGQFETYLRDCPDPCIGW
# Method in brief: as §1
# [10] = target: T11, PHF8 Histone lysine demethylase PHF8 (Q9UPP1) (Homo sapiens, UniProt Q9UPP1); conditions: SILAC H/L, HEK293T
# T11 construct: In Situ Labelling of Cells with Hydrazine Probes for MS Experiments; endogenous in cells
# Method in brief: as §1
# [11] = target: T12, ACOX3 Peroxisomal acylcoenzyme A oxidase 3 (O15254) (Homo sapiens, UniProt O15254); conditions: SILAC H/L, MDA-MB-231
# T12 construct: endogenous in cells; host or cells: HEK293T or MDA-MB-231
# Method in brief: as §1
# [12] = target: T13, KDM1A Lysinespecific histone demethylase 1A (O60341) (Homo sapiens, UniProt O60341); conditions: SILAC H/L, HEK293T
# T13 construct: In Situ Labelling of Cells with Hydrazine Probes for MS Experiments; endogenous in cells; host or cells: HEK293T and/or MDA-MB-231
# Method in brief: as §1
# T1 sequence (Q5R3I4 whole entry): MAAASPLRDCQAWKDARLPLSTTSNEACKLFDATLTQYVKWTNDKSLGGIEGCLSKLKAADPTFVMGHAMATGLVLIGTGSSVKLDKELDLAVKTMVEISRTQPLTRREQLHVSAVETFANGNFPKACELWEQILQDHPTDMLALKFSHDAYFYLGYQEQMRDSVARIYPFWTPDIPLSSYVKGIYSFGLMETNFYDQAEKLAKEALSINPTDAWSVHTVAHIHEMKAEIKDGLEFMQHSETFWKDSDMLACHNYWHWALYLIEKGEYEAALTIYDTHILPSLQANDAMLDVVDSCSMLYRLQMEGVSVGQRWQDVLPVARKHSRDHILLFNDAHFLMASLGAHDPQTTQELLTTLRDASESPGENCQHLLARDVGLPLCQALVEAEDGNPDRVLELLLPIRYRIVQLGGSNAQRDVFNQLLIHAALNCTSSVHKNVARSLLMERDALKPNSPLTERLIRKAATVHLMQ
smiles,measurement,setting,value
"C#CCCNC(=O)c1ccc(NN)cc1.Cl [probe 2, N-(but-3-yn-1-yl)-4-hydrazinylbenzamide hydrochloride]",enrichment ratioavg,[1]; probe 2 1 mM 0.5 h vs probe 4,14
same,competition ratioavg,[1]; probe 2 vs probe 2+10x probe 4,2
same,enrichment ratioavg,[2]; probe 2 1 mM 0.5 h vs probe 4,6
same,competition ratioavg,[2]; probe 2 vs probe 2+10x probe 4,2
same,enrichment ratioavg,CAT Catalase (P04040); probe 2 1 mM 0.5 h vs probe 4,20
same,competition ratioavg,CAT Catalase (P04040); probe 2 vs probe 2+10x probe 4,1
same,enrichment ratioavg,[3]; probe 2 1 mM 0.5 h vs probe 4,20
same,competition ratioavg,[3]; probe 2 vs probe 2+10x probe 4,5
same,enrichment ratioavg,[4]; probe 2 1 mM 0.5 h vs probe 4,8
same,competition ratioavg,[4]; probe 2 vs probe 2+10x probe 4,4
same,enrichment ratioavg,[5]; probe 2 1 mM 0.5 h vs probe 4,14
same,competition ratioavg,[5]; probe 2 vs probe 2+10x probe 4,6
same,enrichment ratioavg,[6]; probe 2 1 mM 0.5 h vs probe 4,17
same,competition ratioavg,[6]; probe 2 vs probe 2+10x probe 4,2
same,enrichment ratioavg,[7]; probe 2 1 mM 0.5 h vs probe 4,7
same,competition ratioavg,[7]; probe 2 vs probe 2+10x probe 4,2
same,enrichment ratioavg,[8]; probe 2 1 mM 0.5 h vs probe 4,18
same,competition ratioavg,[8]; probe 2 vs probe 2+10x probe 4,3
same,enrichment ratioavg,[9]; probe 2 1 mM 0.5 h vs probe 4,20
same,competition ratioavg,[9]; probe 2 vs probe 2+10x probe 4,4
same,enrichment ratioavg,[10]; probe 2 1 mM 0.5 h vs probe 4,20
same,competition ratioavg,[10]; probe 2 vs probe 2+10x probe 4,15
same,enrichment ratioavg,[11]; probe 2 1 mM 0.5 h vs probe 4,20
same,competition ratioavg,[11]; probe 2 vs probe 2+10x probe 4,1
same,enrichment ratioavg,[12]; probe 2 1 mM 0.5 h vs probe 4,20
same,competition ratioavg,[12]; probe 2 vs probe 2+10x probe 4,2
